Test results: US10189796B2, “[4-(1,3,3-trimethyl-2-oxo-3,4-dihydro-1H-quinoxalin-7-yl)phenoxy]ethyloxy compound or salt thereof” (SANTEN PHARMACEUTICAL CO., LTD., priority 2015, dated 2019)

Columns and labels:
Format in all cases: cell-based
[1] = tested on: IL-4 production in normal human CD4+T cell; experiment: IL-4 production inhibitory action evaluation test (anti-CD3/CD28 antibody stimulation, ELISA); conditions: anti-CD3/CD28, 24 hours, read-out: IL-4 production inhibitory ratio (% of 1 μM)
Protocol: (§1) In order to evaluate an action of the present compound as a GR agonist, IL-2 and IL-4 production inhibitory actions in a normal human CD4^+T cell after stimulation by an anti-CD3/CD28 antibody were investigated. For the measurement of the IL-2 and IL-4 production amounts, the ELISA method (manufactured by R&D Systems, Cat No. D2050, HS400) was used, and a procedure was carried out according to the protocol attached thereto. Hereinafter, the specific method will be described.
(§2) Dynabeads (Registered Trademark) Human T-Activator CD3/CD28 (4×10^7 beads/mL) (Dynabeads) was used, and prepared according to the protocol attached thereto.
(§3) After the test compound was dissolved in dimethylsulfoxide, the solution was diluted with an RPMI medium to prepare 400 μM of a test compound solution. The solution was diluted with a 4% dimethylsulfoxide-containing RPMI medium to prepare 40 μM of a test compound solution.
(§4) Used cells: normal peripheral blood human CD4^+T cell (human CD4^+T cell) (Lonza)
(§5) • 1) Frozen human CD4^+T cells were thawed in a warm water bath at 37° C., and added to an RPMI medium (RPMI 1640 containing 10% FBS, 100 U/mL of Penicillin, and […] of Streptomycin). • 2) The above suspension was recovered and centrifuged at 900 rpm for 10 minutes to give a cell sediment. • 3) The cell sediment was suspended in an RPMI medium and the operation of 2) was carried out. • 4) The cell sediment was adjusted to 4×10^5 cells/mL with an RPMI medium. • 5) The above suspension was cultured in a CO2 incubator (temperature: 37° C., CO2 concentration: 5%) for 1 hour or longer. (Test Method and Measurement Method) • 1) The cultured human CD4^+T cells were recovered and the cells were seeded in 96-well flat bottom culture plates at each 8.0×10^4 cells/0.2 mL/well. • 2) The test compound solution was added with each 5 μL/well. • 3) The prepared Dynabeads were added with each 2 μL/well. • 4) The sample in which 4% dimethylsulfoxide-containing RPMI medium was added with each 5 μL/well in place of each test compound solution, and the RPMI medium was added with each 2 μL/well in place of the Dynabeads was made a negative control. • 5) The sample in which 4% dimethylsulfoxide-containing RPMI medium was added with each 5 μL/well in place of each test compound solution was made a positive control. • 6) After completion of 24 hours cultivation, the supernatant was recovered and the amounts of IL-2 and IL-4 released in the supernatant was measured by using an ELISA Kit. • 7) The IL-2 and IL-4 production inhibitory ratios were calculated according to the following calculation formula. (Calculation of IL-2 and IL-4 Production Inhibitory Ratios)
(§6) The IL-2 and IL-4 production inhibitory ratios (%) were calculated by the following formula, respectively. IL-2 or IL-4 production inhibitory ratio (%)=100×{1−(IL-2 or IL-4 production amounts of each test compound solution−average value of IL-2 or IL-4 production amount of negative control group)/(average value of IL-2 or IL-4 production amount of positive control group−average value of IL-2 or IL-4 production amount of negative control group)}(%) (Test Result and Consideration)

[2] = tested on: IL-2 production in normal human CD4+T cell; experiment: IL-2 production inhibitory action evaluation test (anti-CD3/CD28 antibody stimulation, ELISA); conditions: anti-CD3/CD28, 24 hours, read-out: IL-2 production inhibitory ratio (% of 1 μM)
Protocol: as §1, §2, §3, §4, §5, §6

[3] = tested on: IL-6 production in human corneal epithelium cell line (HCE-T); experiment: IL-6 production inhibitory action evaluation test (LPS stimulation, HTRF); conditions: 4 hours; for Emax: 100 μM test compound solution 10 μL/well, DEX treated group = 100, read-out: IL-6 production inhibitory ratio (% DEX); for IC50: IL-6 production inhibition
Protocol: To evaluate the action of the present compounds as a GR agonist, IL-6 production inhibitory action in human corneal epithelial cell line after LPS stimulation was examined The IL-6 production was measured by using the HTRF method (Cat No. 62IL6PEB manufactured by Cisbio Bioassays, Inc.) according to the attached protocol. The specific method is described below.
LPS solution: After dissolving LPS in PBS(−), the resulting solution was diluted with a culture solution, whereby an LPS solution with a 1 μg/mL concentration was prepared.
After dissolving the test compound in dimethylsulfoxide, the solution was diluted with a 10% FBS-DMEM/Ham's F12 medium, whereby a 100 μM of the test compound solution was prepared. […] In addition, DEX was similarly dissolved, whereby a 100 μM concentration of the DEX solution was prepared, and an IL-6 production inhibitory ratio of DEX was measured, and used for calculation of Efficacy (% DEX).
Used cells: human corneal epithelium cell line (HCE-T) (RIKEN, Institute of Physical and Chemical Research)
The cells continued to subculture according to this method were used for the test. (Test Method and Measurement Method) • 1) The subcultured HCE-T was recovered and the cells were seeded at 2.0×10^4 cells/0.1 mL/well in a 96-well flat bottom culture plate. • 2) After culturing overnight, medium the medium was removed and each 80 μL/well of 10%
FBS-DMEM/Ham's F12 medium was added. • 3) Test compound solution was added with each 10 μL/well. • 4) LPS solution was added with each 10 μL/well. • 5) The sample to which 1% dimethylsulfoxide-containing 10% FBS-DMEM/Ham's F12 medium was added with each 10 μL/well in place of each test compound solution, and 10% FBS-DMEM/Ham's F12 medium was added in place of the LPS solution was made a negative control. • 6) The sample in which 1% dimethylsulfoxide-containing 10% FBS-DMEM/Ham's F12 medium was added with each 10 μL/well in place of each test compound solution was made a positive control. • 7) After completion of 4 hours cultivation, the supernatant was recovered and the amount of IL-6 released in the supernatant was measured by using an HTRF human IL-6 Kit. • 8) The IL-6 production inhibitory ratio was calculated according to the following calculation formula. (Calculation of IL-6 Production Inhibitory Ratio)
The IL-6 production inhibitory ratio (%) was calculated by the following formula. IL-6 production inhibitory ratio (%)=100×{1−(IL-6 produced amount of each test compound solution−average value of IL-6 produced amount of negative control group)/(average value of IL-6 produced amount of positive control group−average value of IL-6 produced amount of negative control group)}(%)
Further, the IL-6 production inhibitory ratio (Efficacy (% DEX)) when the DEX treated group was made 100 was calculated. Efficacy (% DEX)=100×{(average value of IL-6 production inhibitory ratio of each test compound solution)/(average value of IL-6 production inhibitory ratio of DEX treated group)}(%)
In addition, IC50 was calculated according to a conventional method. IDBS XLfit4 was used for the calculation.

| SMILES | inhibition at 1 µM [1] | inhibition at 1 µM [2] | Emax [3] | IC50 [3] |
| --- | --- | --- | --- | --- |
| COc1cc(OC[C@H](C)O)ccc1-c1ccc2c(c1COc1cc(F)ccc1C)N(C)C(=O)C(C)(C)N2 [Compound 1-1, (S)-8-(5-fluoro-2-methylphenoxymethyl)-7-[4-(2-hydroxypropyl)oxy-2-methoxy-phenyl]-1,3,3-trimethyl-3,4-dihydro-1H-quinoxalin-2-one] | 91% | 73% | 86% |  |
| COc1cc(OC[C@@H](O)CCO)ccc1-c1ccc2c(c1COc1cc(F)ccc1C)N(C)C(=O)C(C)(C)N2 [Compound 2-1, (S)-7-[4-(2,4-dihydroxybutyl)oxy-2-methoxyphenyl]-8-(5-fluoro-2-methyl-phenoxymethyl)-1,3,3-trimethyl-3,4-dihydro-1H-quinoxalin-2-one] | 83% | 79% | 82% |  |
| COc1cc(OC[C@@H](O)CC#N)ccc1-c1ccc2c(c1COc1cc(F)ccc1C)N(C)C(=O)C(C)(C)N2 [Compound 5-2, (S)-7-[4-(3-cyano-2-hydroxypropyl)oxy-2-methoxyphenyl]-8-(5-fluoro-2-methyl-phenoxymethyl)-1,3,3-trimethyl-3,4-dihydro-1H-quinoxalin-2-one] |  |  | > 99% | 13 nM |
| COc1cc(OC[C@H](C)OC(=O)CN(C)C)ccc1-c1ccc2c(c1COc1cc(F)ccc1C)N(C)C(=O)C(C)(C)N2 [Compound 11-1, (S)-7-[4-[2-(N,N-dimethylaminoacetoxy)propyl]oxy-2-methoxyphenyl]-8-(5-fluoro-2-methylphenoxymethyl)-1,3,3-trimethyl-3,4-dihydro-1H-quinoxalin-2-one] | 87% | 72% |  |  |
| COc1ccc(CO)cc1-c1ccc2c(c1COc1cc(F)ccc1C)N(C)C(=O)C(C)(C)N2 [Control compound B, 8-(5-fluoro-2-methylphenoxymethyl)-7-(5-hydroxymethyl-2-methoxyphenyl)-1,3,3-trimethyl-3,4-dihydro-1H-quinoxalin-2-one, reference compound] | 51% | 35% | 62% |  |
| COc1ccc(O)cc1-c1ccc2c(c1COc1cc(F)ccc1C)N(C)C(=O)C(C)(C)N2 [Control compound C, 8-(5-fluoro-2-methylphenoxymethyl)-7-(5-hydroxy-2-methoxyphenyl)-1,3,3-trimethyl-3,4-dihydro-1H-quinoxalin-2-one] | 56% | 26% | 71% | 93 nM |
| CCCC(=O)Oc1ccc(-c2ccc3c(c2COc2cc(F)ccc2C)N(C)C(=O)C(C)(C)N3)c(OC)c1 [Control compound D, 7-(4-butyryloxy-2-methoxyphenyl)-8-(5-fluoro-2-methylphenoxymethyl)-1,3,3-trimethyl-3,4-dihydro-1H-quinoxalin-2-one, reference compound] | 46% | < 0% | 69% |  |
| COc1ccc(-c2ccc3c(c2COc2cc(F)ccc2C)N(C)C(=O)C(C)(C)N3)c(OC)c1 [Control compound E, 7-(2,4-dimethoxyphenyl)-8-(5-fluoro-2-methyl-phenoxymethyl)-1,3,3-trimethyl-3,4-dihydro-1H-quinoxalin-2-one, reference compound] | 32% | < 0% | 10% |  |
| COCOc1ccc(-c2ccc3c(c2COc2cc(F)ccc2C)N(C)C(=O)C(C)(C)N3)c(OC)c1 [Control compound F, 8-(5-fluoro-2-methylphenoxymethyl)-7-(2-methoxy-4-methoxymethoxyphenyl)-1,3,3-trimethyl-3,4-dihydro-1H-quinoxalin-2-one, reference compound] | 29% | < 0% | 62% |  |
